Measured values as given in article PMC3254106 (ACS medicinal chemistry letters, 2011).

Legend:
[1] = tested on: Aurora; experiment: Aurora activity of analogues; format: biochemical
[2] = biological target: T1, AXL kinase (Homo sapiens, UniProt P30530); experiment: AXL kinase biochemical assay
T1 sequence (P30530 26-894): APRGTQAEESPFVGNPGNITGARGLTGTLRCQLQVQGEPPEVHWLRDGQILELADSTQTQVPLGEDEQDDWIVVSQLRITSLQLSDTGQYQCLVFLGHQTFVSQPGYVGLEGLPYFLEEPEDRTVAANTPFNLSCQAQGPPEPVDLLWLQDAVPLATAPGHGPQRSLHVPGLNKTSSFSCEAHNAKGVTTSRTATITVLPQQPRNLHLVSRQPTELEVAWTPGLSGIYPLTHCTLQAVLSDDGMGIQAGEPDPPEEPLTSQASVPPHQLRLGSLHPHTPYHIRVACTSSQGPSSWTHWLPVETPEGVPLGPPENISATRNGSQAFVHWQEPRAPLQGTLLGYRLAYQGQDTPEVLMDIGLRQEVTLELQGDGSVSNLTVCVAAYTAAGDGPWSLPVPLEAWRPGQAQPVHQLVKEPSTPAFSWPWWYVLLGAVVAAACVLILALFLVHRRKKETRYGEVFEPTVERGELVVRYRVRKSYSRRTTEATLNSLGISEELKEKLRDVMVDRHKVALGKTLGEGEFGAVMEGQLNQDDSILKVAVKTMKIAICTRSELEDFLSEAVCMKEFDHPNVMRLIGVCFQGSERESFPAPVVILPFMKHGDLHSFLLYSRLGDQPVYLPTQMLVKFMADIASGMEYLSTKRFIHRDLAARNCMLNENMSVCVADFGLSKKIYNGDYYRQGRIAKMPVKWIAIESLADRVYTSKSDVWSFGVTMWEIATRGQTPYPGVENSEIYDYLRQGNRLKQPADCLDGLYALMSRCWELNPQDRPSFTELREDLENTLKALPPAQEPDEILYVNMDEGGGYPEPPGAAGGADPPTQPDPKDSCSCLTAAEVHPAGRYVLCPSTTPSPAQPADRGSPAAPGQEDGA

[3] = tested on: Pancreatic cancer cells (PSN-1); experiment: Cell cycle analysis, propidium iodide flow cytometry; format: cell-based; details: PSN-1, 30 nM, 24 hours
[4] = tested on: panel of 75 kinases; experiment: Kinase panel profiling at 200 nM; details: 200 nM profiling

CN1CCN(Cc2ccc(Nc3ncc(Cl)c(-c4ccc(F)cc4S(=O)(=O)N(C)C)n3)cc2)CC1 [Compound 26]
Aurora activity [1]: strong aurora activity

CN1CCN(Cc2ccc(Nc3ncc(Cl)c(-c4ccc(F)cc4S(=O)(=O)N4CCCC4)n3)cc2)CC1 [Compound 27]
Aurora activity [1]: strong aurora activity

CN1CCN(c2ccc(Nc3nc(-c4ccc(F)c(Cl)c4)cc(-c4ccc(F)c(Cl)c4)n3)cc2F)CC1 [Compound 2]
IC50 [2]: 47 µM

CN1CCN(Cc2ccc(Nc3ncc(Cl)c(Nc4ccccc4S(=O)(=O)N(C)C)n3)cc2)CC1 [Compound 13]
G2/M (4N) population of cells [3]: significant increase | cells with ≥4N DNA (8N peak, endoreduplication) [3]: accumulation of cells with ≥4N DNA | activity against MER, TYRO3, Aurora A and B, JAK2, ALK, ABL1 and CHEK1 [4]: strong activity

CN1CCN(c2ccc(Nc3nc(-c4ccc(F)c(Cl)c4)cc(-c4ccc[nH]4)n3)cc2F)CC1 [Compound 1]
IC50 [2]: 33 µM

CN1CCN(Cc2ccc(Nc3ncc(F)c(-c4ccc(F)cc4S(=O)(=O)N4CCCC4)n3)cc2)CC1 [Compound 16]
Aurora activity [1]: strong aurora activity

Cc1cnc(Nc2ccc(CN3CCN(C)CC3)cc2)nc1-c1ccc(F)cc1S(=O)(=O)N1CCCC1 [Compound 15]
Aurora activity [1]: strong aurora activity
